What was measured:
PA = assay: MIC in physiological-mimicking environments (MHB); format: cell-based, P. aeruginosa
Text: (§1) The complexities of the physiological environment often influence drug activity, particularly when cations in solution are implicated in their oligomerization-dependent mechanisms of action, such as for daptomycin. Binding of free drug to plasma proteins effectively reduces the available free concentration of the drug capable of killing bacteria, resulting in lower observable activity. We tested MIC values of DM4P and DM6P in the presence of human serum albumin (40 g L^−1) and high salt concentrations (Table 4). Under these conditions, the antimicrobial activity was minimally affected by these environmental factors, with MICs remaining within a 2-fold level.

PAO1 [1] = assay: Live-dead staining (SYTO-9/PI) fluorescence microscopy; format: cell-based, P. aeruginosa; conditions: PAO1, 16 μg mL^−1 for 30 minutes
Experimental: Membrane damage induced by COE treatment was also confirmed by fluorescence microscopy. A combination of SYTO-9 and PI is commonly employed as a live-dead stain to distinguish cells with permeabilized membranes. […] Combined with PI, the contrast between the colours is employed as a visual indicator of membrane damage. PAO1 cells exposed to 16 μg mL^−1 of DM6P for 30 minutes were subsequently stained with both dyes and imaged directly.
Cell membrane integrity was determined using LIVE/DEAD™ BacLight™ bacterial viability kit L7007 (ThermoFisher, USA) according to the manufacturer's protocol. Bacteria cells were collected from mid-log cultures by centrifugation (7000 rpm, 10 minutes). The media was removed, and the bacteria was washed with PBS twice and diluted to a concentration of about 1×10^7 CFU per mL. […] A mixture of the dyes SYTO-9 and PI dissolved in DMSO were added to the suspension at final concentrations of 5 μM and 30 μM respectively. The bacteria were then incubated in the dark for 15 min. Samples were prepared by aliquoting 5 μl onto a clean glass slide, trapped with an 18 mm coverslip and imaged on an epifluorescence microscope (Leica Thunder Imager).

[2] = tested on: M. abscesses (ATCC 19977); assay: MIC against mycobacterium in Middlebrook 7H9 broth; format: cell-based, M. abscessus
Experimental: We also examined non-tuberculous mycobacteria (NTM). These are opportunistic pathogens that are rising in clinical significance due to their increasing prevalence and treatment difficulty. The membrane of Mycobacterium is inherently a greater antibiotic permeability barrier due to its high lipid content relative to other pathogens and long-tailed mycolic acids that contributed to its high lipophilic character. The antimicrobial activity of the TPP analogues were also evaluated against Mycobacterium in Middlebrook 7H9 broth.

SA = assay: MIC in physiological-mimicking environments (MHB); format: cell-based, S. aureus
Text: as §1

MRSA = assay: Resistance development by serial passaging at 0.5× MIC; format: cell-based, S. aureus
Experimental: The non-specific action of membrane-active antibiotics lends itself to minimal development of resistance development due to the large metabolic burden involved, unlike traditional antibiotics with a well-defined enzymatic target. Based on this premise, we passaged bacteria incubated with DM6P, or ciprofloxacin (control), at 0.5× MIC to investigate the adaptation of bacteria towards external antibiotic stress. As a control, treatment of MRSA with ciprofloxacin gave rise to antibiotic-resistant mutants within 4 passages, see FIG. 4a. […] Combined with its broad spectrum of activity, this feature opens opportunities for the use of COE antimicrobial agents to address polymicrobial infections with a lower rate of emerging antibiotic resistance.

[3] = tested on: K. pneumoniae (ATCC BAA1705); assay: Minimum bactericidal concentration (MBC); format: cell-based; conditions: strain CRKP; unit printed in b207 only
Experimental: (§2) To study the extent to which TPP-COEs can effectively kill bacteria, bacteria cells treated with DM6P at varying concentrations were plated onto Tryptic Soy Agar (TSA) and the minimum bactericidal concentration (MBC), where complete eradication of the inoculum occurred, was determined (Table 5). MBC values ranged from 2 μg mL^−1 towards MRSA to 8 μg mL^−1 towards PAO1 and stayed within a two to four-fold range of the MIC values for all strains tested.
(§3) Bacteria samples treated with DM6P at varying concentrations from a broth microdilution method in a 96-well plate according to the methods for determining the MIC. Colonies were plated on TSB agar plates with 20 μL inoculation and the plates incubated at 37° C. overnight. […] All measurements were performed in triplicate.

A. baumanii (ATCC 17978) = assay: Minimum bactericidal concentration (MBC); format: cell-based; conditions: strain AB; unit printed in b207 only
Experimental: as §2, §3

[4] = tested on: E. coli. K12 (ATCC 10798); assay: Minimum bactericidal concentration (MBC); format: cell-based; conditions: strain EC; unit printed in b207 only
Experimental: as §2, §3

[5] = tested on: P. aeruginosa (ATCC47085); assay: Minimum bactericidal concentration (MBC); format: cell-based; conditions: strain PA (PAO1); unit printed in b207 only
Experimental: as §2, §3

[6] = tested on: Methicillin-resistant S. aureus (ATCC BAA1717); assay: Minimum bactericidal concentration (MBC); format: cell-based; conditions: strain MRSA; unit printed in b207 only
Experimental: as §2, §3

[7] = tested on: E. faecalis OG1RF (ATCC 47077); assay: Minimum bactericidal concentration (MBC); format: cell-based; conditions: strain EF; unit printed in b207 only
Experimental: as §2, §3

PAO1 [8] = assay: Flow cytometry of PI uptake; format: cell-based, P. aeruginosa; conditions: PAO1, 16 μg mL^−1 (4× MIC), PI staining
Experimental: Flow cytometry measurements were carried out to quantify PI uptake at the cellular level.
Bacteria cells were collected from mid-log cultures by centrifugation (7000 rpm, 10 minutes). and washed with PBS twice. Cells were treated with the COE at 4×MIC and incubated for 30 minutes. PI (30 μM, final concentration) was then added and the cells were further incubated for 10 minutes. The suspension was then diluted in PBS to an appropriate cell density and analysed with flow cytometry using an Amnis ImageStreamX Mk II Imaging Flow Cytometer. The collection gate was set using the area vs aspect ratio of the brightfield channel to select for intact cell events only. To select for PI-stained cells, excitation was carried out using a 638 nm laser and the emission was collected in the range of 642-745 nm. Data was processed using IDEAS v6.3.

COc1cc(/C=C/c2ccc(OCCCCCC[P+](c3ccccc3)(c3ccccc3)c3ccccc3)c(OC)c2)ccc1OCCCCCC[P+](c1ccccc1)(c1ccccc1)c1ccccc1.[I-].[I-] [DM6P]
MIC CaCl2 (PA; CaCl2 1 mM): 4 µg/mL
MIC MgCl2 (PA; MgCl2 1.25mM): 4 µg/mL
MIC NaCl (PA; NaCl 300 mM): 8 µg/mL
MIC HSA (PA; human serum albumin 40 g L^−1): 8 µg/mL
MIC — (PA; no additive): 4 µg/mL
PI staining in live-dead stain (PAO1 [1]): clear staining by PI
MIC M. abscesses [2]: 8 µg/mL
MIC CaCl2 (SA; CaCl2 1 mM): 1 µg/mL
MIC MgCl2 (SA; MgCl2 1.25mM): 1 µg/mL
MIC NaCl (SA; NaCl 300 mM): 1 µg/mL
MIC HSA (SA; human serum albumin 40 g L^−1): 1 µg/mL
MIC — (SA; no additive): 1 µg/mL
resistance development (MRSA): did not induce any observable resistant mutants
MBC [3]: 16 µg/mL
MBC (A. baumanii (ATCC 17978)): 32 µg/mL
MBC [4]: 2 µg/mL
MBC [5]: 8 µg/mL
MBC [6]: 2 µg/mL
MBC [7]: 4 µg/mL
PI uptake at the cellular level (PAO1 [8]): near quantitative cell staining with PI

From patent publication US20260215432A1, “ANTIMICROBIAL CONJUGATED OLIGOELECTROLYTES AND METHODS THEREOF” (National University of Singapore, priority 2023, published 2026)
